The subject of assay [1] is diet-induced obese mice. The assay can be described thus: Feeding study in diet-induced obese mice (food intake, body weight). In kind it is in vivo. From the text:
NMUR1 knockout (Nmur1−/−) mice were generated using standard homologous recombination techniques. Nmur1 mice were subsequently transferred to Taconic Farms where they were either maintained on a 75% C57BL/6×25% 129S6/SvEv mixed genetic background or backcrossed six generations to C57BL/6. NMUR2 knockout (Nmur2−/−) mice were licensed from Deltagen Inc., San Mateo, Calif. and subsequently transferred to Taconic Farms where they were either maintained on a 75% C57BL/6×25% 129/OlaHsd mixed genetic background or backcrossed for seven generations to C57BL/6. NMUR1 and NMUR2 double knockout (Nmur1&2−/−) mice were generated by crossing N6 Nmur1−/− mice to N7 Nmur2−/− mice. Mice were individually housed in Tecniplast cages in a conventional SPF facility. Mice were initially maintained on a regular chow diet and then early in their life were switched to a high fat diet (D12492: 60% kcal from fat; Research Diets, Inc., New Brunswick, N.J.) with ad libitum access to water in a 12-hour light/12-hour dark cycle.
Ad libitum fed male diet-induced obese mice were weighed and dosed either i.p. or s.c. about 30 minutes prior to the onset of the dark phase of the light cycle and provided with a preweighed aliquot of high fat diet D12492 which was then weighed 2 hours and 18 hours (day 1), 42 hours (day 2), 66 hours (day 3), and 90 hours (day 4) after the onset of the initial dark phase. Mice were weighed at the 18, 42, 66 and 90 hour time points.

Assay [2] deals with T1, mouse NMUR1-ATG (Mus musculus, UniProt O55040).
T1 sequence (O55040 1-428): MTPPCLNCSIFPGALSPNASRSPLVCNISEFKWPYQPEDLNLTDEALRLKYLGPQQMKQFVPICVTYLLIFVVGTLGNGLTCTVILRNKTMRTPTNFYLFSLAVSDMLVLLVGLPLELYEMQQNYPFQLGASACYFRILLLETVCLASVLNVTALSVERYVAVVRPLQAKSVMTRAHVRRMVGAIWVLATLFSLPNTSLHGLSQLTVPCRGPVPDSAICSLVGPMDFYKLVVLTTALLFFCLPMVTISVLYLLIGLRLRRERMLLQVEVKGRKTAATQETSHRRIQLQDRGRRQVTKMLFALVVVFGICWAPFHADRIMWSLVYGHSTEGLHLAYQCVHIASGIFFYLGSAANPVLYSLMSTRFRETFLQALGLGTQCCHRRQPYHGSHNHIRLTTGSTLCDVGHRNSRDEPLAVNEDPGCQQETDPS
The assay can be described thus: FLIPR calcium mobilization assay, mouse NMUR1-ATG. It counts as cell-based. The arrangement: expressed in transfected cells; host or cells: FLP-In CHO or HEK-293 FLP-In cells (pcDNA5). The following applies: for EC50: FLIPR. The text has this:
(§1) Human, mouse or rat cDNAs encoding NMUR1 or NMUR2 (as described in Howard et al. Nature 406: 70-74 (2000) were subcloned in pcDNA5 (Invitrogen) and transfected into FLP-In CHO cells and HEK-293 FLP-In cells purchased from Invitrogen (Carlsbad, Calif.) using lipofectamine (Invitrogen). The Flp-In system allows integration and expression of a particular gene of interest at a specific genomic location utilizing the Flp recombinase from yeast. The transfected cells were selected by growth in medium containing 200 μg/mL hygromycin (Invitrogen). Populations were frozen at early passage numbers, and these stocks were used for further studies. Stable clones that expressed the mRNAs were identified functionally by FLIPR as well as by RT-PCR. […] Two different rodent NMUR1 cell lines were thus generated: one with the codon as predicted from the genomic databases and another cell line with an engineered methionine (ATG) as the start codon. Additionally, stable cell lines expressing the human receptors were generated in HEK-293/aeq17 cells which stably express the aequorin gene under the CMV promoter. The human NMUR2 cDNA was cloned into pcDNA3.1 and human NMUR1 was subcloned into pIRES-puro (Clontech, Mountain View, Calif.), after transfection cells were selected in media containing G418 and either hygromycin (NMUR2) or puromycin (NMUR1).
(§2) The NMU receptors signal primarily through Gαq/11 proteins; therefore calcium mobilization assays can be utilized for functional activity.
(§3) Stable cell lines expressing human and or rodent NMUR1 or human NMUR2 receptors were plated at a density of 12,000 cells per well overnight on poly-lysine coated 384-well black-walled plates. The following day, the media was removed from the plates and the cells were subsequently loaded with Fluo-3 (Molecular Probes), a calcium sensitive dye, diluted in FLIPR buffer (1× Hank's buffered saline containing 20 mM HEPES, 0.1% BSA, 2.5 mM probenecid (Sigma) and 1.6 mM TR40). All reagents are from Invitrogen unless otherwise noted. Peptide stocks were resuspended in DMSO at a stock concentration of 2 mM and diluted in FLIPR buffer on the day of the experiment to a 4 μM working stock solution.
(§4) After a 90 minute incubation at room-temperature, cell plates were loaded onto a FLIPR (Molecular Devices) to monitor cellular fluorescence (excitation=488 nm; emission=540 nm) before and after compound/peptide addition. Eight to twelve point dose responses were tested on NMUR-expressing cell lines using FLIPR with 1 μM peptide as the highest dose. The response after peptide addition was taken as the maximum fluorescence units minus the fluorescence immediately prior to stimulation for each well. EC50 values were calculated using GraphPad Prism (San Diego, Calif.) software.
(§5) In vitro responses of Neuromedin U receptor agonists (NMU1 to NMU25) in the FLIPR assay for human (Table 3), mouse (Table 4) and rat (Table 5) NMUR1 and NMUR2. EC50s are reported in nM values. Percent activity refers to the maximum response at 1 μM compared to the hNMU-25 response at the same concentration. NT=not tested.

The target of assay [3] is T2, rat NMUR1-TTG (Rattus norvegicus, UniProt Q9JJI5).
T2 sequence (Q9JJI5 1-425): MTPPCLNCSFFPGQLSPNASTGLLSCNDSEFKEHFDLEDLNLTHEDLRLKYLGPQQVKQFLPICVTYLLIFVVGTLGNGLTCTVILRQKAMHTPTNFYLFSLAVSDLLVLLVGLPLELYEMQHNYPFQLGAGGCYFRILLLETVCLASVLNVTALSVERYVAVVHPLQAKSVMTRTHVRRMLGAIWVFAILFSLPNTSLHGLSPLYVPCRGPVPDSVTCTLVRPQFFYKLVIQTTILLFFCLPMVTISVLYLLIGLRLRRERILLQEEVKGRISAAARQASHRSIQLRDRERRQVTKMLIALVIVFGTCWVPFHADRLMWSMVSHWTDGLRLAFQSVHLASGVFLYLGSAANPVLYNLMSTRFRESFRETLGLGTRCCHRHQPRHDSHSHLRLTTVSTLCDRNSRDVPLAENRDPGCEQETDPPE
The assay can be described thus: FLIPR calcium mobilization assay, rat NMUR1-TTG. It counts as cell-based. The arrangement: expressed in transfected cells; host or cells: FLP-In CHO or HEK-293 FLP-In cells (pcDNA5). Conditions: for EC50: FLIPR.
Excerpt: as §1, §2, §3, §4, §5

[4] abbreviates: maximum response at 1 μM compared to hNMU-25, mouse NMUR1-ATG.
The mark [5] stands for this setting: maximum response at 1 μM compared to hNMU-25, rat NMUR1-TTG.

Non-standard residues stand in square brackets, D forms with d. Residues, ends and D or L forms follow the SMILES beside them. *: point of attachment. Succinimide(1-Et,3-yl) = CCN1C(=O)CC(*)C1=O; Palmitoyl = CCCCCCCCCCCCCCCC(=O)*

For orientation: IC50 means the concentration needed to halve the response being measured. What is called EC50 is the concentration needed to bring the measured effect to its halfway point.

In the case of `CC(C)C[C@@H](NC(=O)[C@H](Cc1ccccc1)NC(=O)[C@H](Cc1ccc(O)cc1)NC(=O)CNC(=O)[C@H](CCCNC(=N)N)NC(=O)[C@H](CO)NC(=O)[C@H](CCC(N)=O)NC(=O)[C@H](CO)NC(=O)[C@H](C)NC(=O)[C@H](Cc1ccccc1)NC(=O)[C@@H]1CCCN1C(=O)[C@H](CO)NC(=O)[C@H](CCC(N)=O)NC(=O)[C@H](Cc1ccccc1)NC(=O)[C@H](CCC(=O)O)NC(=O)[C@H](CCC(=O)O)NC(=O)[C@H](CC(=O)O)NC(=O)[C@@H](NC(=O)[C@H](CCCNC(=N)N)NC(=O)[C@@H](N)Cc1ccccc1)C(C)C)C(=O)N[C@@H](Cc1c[nH]c2ccccc12)C(=O)N[C@@H](CCCNC(=N)N)C(=O)N1CCC[C@H]1C(=O)N[C@@H](CCCNC(=N)N)C(=O)N[C@@H](CC(N)=O)C(N)=O` [Agonist H] (H-FRVDEEFQSPFASQSRGYF[dL]WRPRN-NH2; N-terminus assumed), the food intake entry in assay [1] (acute peripheral administration, wild-type mice) is “significantly reduced food intake”; in assay [1] (ip 3.25 mmoles/kg, diet-induced obese Nmur1+/+ and Nmur1−/− mice, about 2 and 18 hours), “reduces food intake”. For the same molecule, the IC50 in assay [2] (functional data, mouse R1-ATG) turned out to be 25 nM. The “% Activity” value in assay [2] (functional, mouse R1-ATG, relative to native hNMU responses) was 90%; in assay [3] (functional, rat R1-TTG, relative to native hNMU responses), 91%.

As for `CCN1C(=O)CC(SC[C@H](NC(C)=O)C(=O)N[C@@H](Cc2ccccc2)C(=O)N[C@@H](CCC(N)=O)C(=O)N[C@@H](CO)C(=O)N2CCC[C@H]2C(=O)N[C@@H](Cc2ccccc2)C(=O)N[C@@H](C)C(=O)N[C@@H](CO)C(=O)N[C@@H](CCC(N)=O)C(=O)N[C@@H](CO)C(=O)N[C@@H](CCCNC(=N)N)C(=O)NCC(=O)N[C@@H](Cc2ccc(O)cc2)C(=O)N[C@@H](Cc2ccccc2)C(=O)N[C@@H](CC(C)C)C(=O)N[C@@H](Cc2ccccc2)C(=O)N[C@@H](CCCNC(=N)N)C(=O)N2CCC[C@H]2C(=O)N[C@@H](CCCNC(=N)N)C(=O)N[C@@H](CC(N)=O)C(N)=O)C1=O` (stereo partly shown) [NMU19] (Ac-C(Succinimide(1-Et,3-yl))FQSPFASQSRGYFLFRPRN-NH2), the “% Activity” value in assay [2] (setting [4]) and in assay [3] (setting [5]) was 100% in each case.

With `CCN1C(=O)CC(SC[C@H](NC(C)=O)C(=O)N[C@@H](CSC2CC(=O)N(CC)C2=O)C(=O)N[C@@H](Cc2ccccc2)C(=O)N[C@@H](CCCNC(=N)N)C(=O)N[C@H](C(=O)N[C@@H](CC(=O)O)C(=O)N[C@@H](CCC(=O)O)C(=O)N[C@@H](CCC(=O)O)C(=O)N[C@@H](Cc2ccccc2)C(=O)N[C@@H](CCC(N)=O)C(=O)N[C@@H](CO)C(=O)N2CCC[C@H]2C(=O)N[C@@H](Cc2ccccc2)C(=O)N[C@@H](C)C(=O)N[C@@H](CO)C(=O)N[C@@H](CCC(N)=O)C(=O)N[C@@H](CO)C(=O)N[C@@H](CCCNC(=N)N)C(=O)NCC(=O)N[C@@H](Cc2ccc(O)cc2)C(=O)N[C@@H](Cc2ccccc2)C(=O)N[C@@H](CC(C)C)C(=O)N[C@@H](Cc2ccccc2)C(=O)N[C@@H](CCCNC(=N)N)C(=O)N2CCC[C@H]2C(=O)N[C@@H](CCCNC(=N)N)C(=O)N[C@@H](CC(N)=O)C(N)=O)C(C)C)C1=O` (stereo partly shown) [NMU22] (Ac-C(Succinimide(1-Et,3-yl))C(Succinimide(1-Et,3-yl))FRVDEEFQSPFASQSRGYFLFRPRN-NH2), the figures for the “% Activity” value in assay [2] (setting [4]) and in assay [3] (setting [5]) were 100% and 96.4%, respectively.

Turning to `CCCCCCCCCCCCCCCC(=O)N[C@@H](CSC1CC(=O)N(CC)C1=O)C(=O)N[C@@H](Cc1ccccc1)C(=O)N[C@@H](CCCNC(=N)N)C(=O)N[C@H](C(=O)N[C@@H](CC(=O)O)C(=O)N[C@@H](CCC(=O)O)C(=O)N[C@@H](CCC(=O)O)C(=O)N[C@@H](Cc1ccccc1)C(=O)N[C@@H](CCC(N)=O)C(=O)N[C@@H](CO)C(=O)N1CCC[C@H]1C(=O)N[C@@H](Cc1ccccc1)C(=O)N[C@@H](C)C(=O)N[C@@H](CO)C(=O)N[C@@H](CCC(N)=O)C(=O)N[C@@H](CO)C(=O)N[C@@H](CCCNC(=N)N)C(=O)NCC(=O)N[C@@H](Cc1ccc(O)cc1)C(=O)N[C@@H](Cc1ccccc1)C(=O)N[C@@H](CC(C)C)C(=O)N[C@@H](Cc1ccccc1)C(=O)N[C@@H](CCCNC(=N)N)C(=O)N1CCC[C@H]1C(=O)N[C@@H](CCCNC(=N)N)C(=O)N[C@@H](CC(N)=O)C(N)=O)C(C)C` (stereo partly shown) [NMU24] (Palmitoyl-C(Succinimide(1-Et,3-yl))FRVDEEFQSPFASQSRGYFLFRPRN-NH2), the “% Activity” value in assay [2] (setting [4]) is given as 81.4%; in assay [3] (setting [5]), 67.7%.

Turning to “Ac-C4-C4-FRVDEEFQSPFASQSRGYFLFRPRN-CONH2 ({Ac-C(PEG 20 kDa)-C(PEG 20 kDa)}-FRVDEEFQSPFASQSRGYFLFRPRN-NH2) [NMU23, C4 = Cys(PEG)20 kDa]”, the EC50 in assay [2] (mouse NMUR1-ATG) stood at 14 nM. Further, the “% Activity” value in assay [3] (setting [5]) stood at 39.8%.

On to “Ac-C4FRVDEEFQSPFASQSRGYFLFRPRN-CONH2 ({Ac-C(PEG 20 kDa)}-FRVDEEFQSPFASQSRGYFLFRPRN-NH2) [NMU21, C4 = Cys(PEG)20 kDa]”, for which the figures for the EC50 in assay [2] (mouse NMUR1-ATG) and in assay [3] (rat NMUR1-TTG) were 9.1 nM and 220 nM, respectively. In assay [3] (setting [5]), the “% Activity” value stood at 77.5%.

Regarding “Pam-C2FRVDEEFQSPFASQSRGYFLFRPRN-CONH2 ({Palmitoyl-C(PEG 40 kDa)}-FRVDEEFQSPFASQSRGYFLFRPRN-NH2) [NMU25, Pam = palmitoyl; C2 = Cys(PEG)240 kDa]”, the EC50 in assay [2] (mouse NMUR1-ATG) worked out at 10.2 nM; in assay [3] (rat NMUR1-TTG), 81 nM. The “% Activity” value in assay [3] (setting [5]) worked out at 93.5%.

The values are drawn from patent US20100075907A1, “NEUROMEDIN U RECEPTOR AGONISTS AND USES THEREOF” (priority 2006, published 2010).
